Converted amounts (≈) assume the structure as drawn. Like-named read-outs stand apart in the source and are kept apart here.
Tests used:
S. aureus ATCC 25923 [1] = assay: Antibacterial activity, post-exposure on preformed 18-h-old biofilms; assay type: cell-based, Staphylococcus aureus; conditions: ± SD; for inhibition at 25 µM / inhibition at 50 µM / inhibition at 100 µM / inhibition at 200 µM: Staphylococcus aureus; for inhibition at 25 µM: ATCC25923, 25 µM; for inhibition at 50 µM: ATCC25923, 50 µM; for inhibition at 100 µM: ATCC25923, 100 µM; for inhibition at 200 µM: ATCC25923, 200 µM
Method in brief: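 Compounds were applied to preformed 18-h biofilms after medium change and left 24 h. Read-outs: planktonic OD plus resazurin fluorescence (20 μM), biofilm metabolic activity by resazurin 30 min at 37 °C, then biomass by crystal violet absorbance at 595 nm after ethanol fixation.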

S. aureus ATCC 25923 [2] = assay: Antibacterial activity, pre-exposure (planktonic cells and biofilm formation); assay type: cell-based, Staphylococcus aureus; conditions: for MIC / inhibition at 5 µM / inhibition at 10 µM / inhibition at 15 µM / inhibition at 25 µM: Staphylococcus aureus, ATCC25923; for inhibition at 5 µM / inhibition at 10 µM / inhibition at 15 µM / inhibition at 25 µM / Average inhibition %, biofilms viability / Average inhibition %, planktonic cells viability: ± SD
Method in brief: (§1)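 Pre-exposure format: compound and bacterial culture co-incubated 18 h, 37 °C, aerobic, 220 rpm. Planktonic: turbidity (OD) plus resazurin viability, 20 μM final. Biofilm: PBS wash, 20 μM resazurin, then ethanol fixation and crystal violet staining, A595.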

P. aeruginosa ATCC 9027 = assay: Antibacterial activity, pre-exposure; assay type: cell-based, Pseudomonas aeruginosa; conditions: for Average inhibition %, biofilms viability / Average inhibition %, planktonic cells viability / inhibition at 50 µM / inhibition at 100 µM / inhibition at 150 µM / inhibition at 200 µM: P. aeruginosa ATCC 9027, pre-exposure, ± SD; for inhibition at 50 µM / inhibition at 100 µM / inhibition at 150 µM / inhibition at 200 µM: Pseudomonas aeruginosa, ATCC9027
Method in brief: as §1

A. baumannii NCTC 13423 = assay: Antibacterial activity, pre-exposure; assay type: cell-based, Acinetobacter baumannii; conditions: for Average inhibition %, biofilms viability / Average inhibition %, planktonic cells viability / inhibition at 10 µM / inhibition at 15 µM / inhibition at 25 µM / inhibition at 50 µM: A. baumannii NCTC 13423, pre-exposure, ± SD; for inhibition at 10 µM / inhibition at 15 µM / inhibition at 25 µM / inhibition at 50 µM / MIC: Acinetobacter baumannii, NCTC13423
Method in brief: as §1

[3] = read-out: Average inhibition %, biofilms biomass
[4] = read-out: Average inhibition %, planktonic cells turbidity
[5] = 50 µM, read-out: Average inhibition %, biofilms biomass
[6] = 50 µM, read-out: Average inhibition %, planktonic cells turbidity

CCCCCCCCCCc1ccc(C(O)CC(N)(CO)CO)cc1 (stereo not shown) [Compound 55, 3-Amino-3-(hydroxymethyl)-1-(4-decylphenyl)butane-1,4-diol]
Average inhibition %, biofilms viability (S. aureus ATCC 25923 [1]; 25 µM): 17.9 ± 13.2%
Average inhibition %, planktonic cells viability (S. aureus ATCC 25923 [1]; 25 µM): 0 ± 0%
Average inhibition %, biofilms viability (S. aureus ATCC 25923 [1]; 50 µM): 36.8 ± 8.3%
Average inhibition %, planktonic cells viability (S. aureus ATCC 25923 [1]; 50 µM): 0 ± 0%
Average inhibition %, biofilms viability (S. aureus ATCC 25923 [1]; 100 µM): 44.4 ± 9.7%
Average inhibition %, planktonic cells viability (S. aureus ATCC 25923 [1]; 100 µM): 70 ± 12.5%
Average inhibition %, biofilms viability (S. aureus ATCC 25923 [1]; 200 µM): 94 ± 8.6%
Average inhibition %, planktonic cells viability (S. aureus ATCC 25923 [1]; 200 µM): 100.4 ± 0%
inhibition at 25 µM (S. aureus ATCC 25923 [1]; [3]): 51.6 ± 18.4%
inhibition at 25 µM (S. aureus ATCC 25923 [1]; [4]): 15.7 ± 13.7%
inhibition at 50 µM (S. aureus ATCC 25923 [1]; [3]): 63.1 ± 9%
inhibition at 50 µM (S. aureus ATCC 25923 [1]; [4]): 9.8 ± 13.9%
inhibition at 100 µM (S. aureus ATCC 25923 [1]; [3]): 61.4 ± 3.4%
inhibition at 100 µM (S. aureus ATCC 25923 [1]; [4]): 67.6 ± 10.3%
inhibition at 200 µM (S. aureus ATCC 25923 [1]; [3]): 80.8 ± 4.2%
inhibition at 200 µM (S. aureus ATCC 25923 [1]; [4]): 84.2 ± 3.1%
MIC (S. aureus ATCC 25923 [2]; lowest concentration with no visible growth (>90% inhibition of turbidity and viability of planktonic cells), 18 h, read-out: MIC S. aureus ATCC 25923): 5 to 15 µM (≈ 1.76 to 5.27 µg/mL)
inhibition at 5 µM (S. aureus ATCC 25923 [2]; pre-exposure, 5 µM, read-out: Average inhibition %, biofilms biomass): 48.4 ± 41.1%
inhibition at 5 µM (S. aureus ATCC 25923 [2]; pre-exposure, 5 µM, read-out: Average inhibition %, planktonic cells turbidity): 38.2 ± 53.8%
inhibition at 10 µM (S. aureus ATCC 25923 [2]; pre-exposure, 10 µM, read-out: Average inhibition %, biofilms biomass): 69.6 ± 23.5%
inhibition at 10 µM (S. aureus ATCC 25923 [2]; pre-exposure, 10 µM, read-out: Average inhibition %, planktonic cells turbidity): 43.5 ± 48.8%
inhibition at 15 µM (S. aureus ATCC 25923 [2]; pre-exposure, 15 µM, read-out: Average inhibition %, biofilms biomass): 93.4 ± 1.1%
inhibition at 15 µM (S. aureus ATCC 25923 [2]; pre-exposure, 15 µM, read-out: Average inhibition %, planktonic cells turbidity): 99 ± 0.6%
inhibition at 25 µM (S. aureus ATCC 25923 [2]; pre-exposure, 25 µM, read-out: Average inhibition %, biofilms biomass): 94.2 ± 1.1%
inhibition at 25 µM (S. aureus ATCC 25923 [2]; pre-exposure, 25 µM, read-out: Average inhibition %, planktonic cells turbidity): 98.8 ± 0.6%
MIC (S. aureus ATCC 25923 [2]; pre-exposure, lowest value among replicates, read-out: MIC S. aureus ATCC 25923, for some replicates): 5 µM (≈ 1.76 µg/mL)
MIC (S. aureus ATCC 25923 [2]; read-out: MIC (S. aureus)): 5 to 15 µM (≈ 1.76 to 5.27 µg/mL)
Average inhibition %, biofilms viability (S. aureus ATCC 25923 [2]; pre-exposure, 5 µM): 50.6 ± 42%
Average inhibition %, planktonic cells viability (S. aureus ATCC 25923 [2]; pre-exposure, 5 µM): 33.2 ± 57.6%
Average inhibition %, biofilms viability (S. aureus ATCC 25923 [2]; pre-exposure, 10 µM): 66.7 ± 28.3%
Average inhibition %, planktonic cells viability (S. aureus ATCC 25923 [2]; pre-exposure, 10 µM): 43.1 ± 49.4%
Average inhibition %, biofilms viability (S. aureus ATCC 25923 [2]; pre-exposure, 15 µM): 99.2 ± 0.2%
Average inhibition %, planktonic cells viability (S. aureus ATCC 25923 [2]; pre-exposure, 15 µM): 99.8 ± 0.1%
Average inhibition %, biofilms viability (S. aureus ATCC 25923 [2]; pre-exposure, 25 µM): 99.6 ± 0.2%
Average inhibition %, planktonic cells viability (S. aureus ATCC 25923 [2]; pre-exposure, 25 µM): 99.8 ± 0.2%
Average inhibition %, biofilms viability (P. aeruginosa ATCC 9027; 50 µM): 13.6 ± 11.8%
Average inhibition %, planktonic cells viability (P. aeruginosa ATCC 9027; 50 µM): 31.2 ± 8.9%
Average inhibition %, biofilms viability (P. aeruginosa ATCC 9027; 100 µM): 9.4 ± 9.2%
Average inhibition %, planktonic cells viability (P. aeruginosa ATCC 9027; 100 µM): 30.3 ± 25.5%
Average inhibition %, biofilms viability (P. aeruginosa ATCC 9027; 150 µM): 3.3 ± 4.6%
Average inhibition %, planktonic cells viability (P. aeruginosa ATCC 9027; 150 µM): 40.3 ± 27.1%
Average inhibition %, biofilms viability (P. aeruginosa ATCC 9027; 200 µM): 5 ± 5.6%
Average inhibition %, planktonic cells viability (P. aeruginosa ATCC 9027; 200 µM): 27.1 ± 15.6%
inhibition at 50 µM (P. aeruginosa ATCC 9027; [5]): 6.4 ± 8.2%
inhibition at 50 µM (P. aeruginosa ATCC 9027; [6]): 45.1 ± 5.7%
inhibition at 100 µM (P. aeruginosa ATCC 9027; 100 µM, read-out: Average inhibition %, biofilms biomass): 10.8 ± 8.8%
inhibition at 100 µM (P. aeruginosa ATCC 9027; 100 µM, read-out: Average inhibition %, planktonic cells turbidity): 49.4 ± 8.3%
inhibition at 150 µM (P. aeruginosa ATCC 9027; 150 µM, read-out: Average inhibition %, biofilms biomass): 12 ± 10.4%
inhibition at 150 µM (P. aeruginosa ATCC 9027; 150 µM, read-out: Average inhibition %, planktonic cells turbidity): 54.3 ± 13.8%
inhibition at 200 µM (P. aeruginosa ATCC 9027; 200 µM, read-out: Average inhibition %, biofilms biomass): 3.1 ± 2.7%
inhibition at 200 µM (P. aeruginosa ATCC 9027; 200 µM, read-out: Average inhibition %, planktonic cells turbidity): 59.4 ± 7.3%
MIC P. aeruginosa ATCC 9027 (P. aeruginosa ATCC 9027; pre-exposure, Inactive = no activity up to 200 μM, > = some inhibition but no MIC reached): Inactive
Average inhibition %, biofilms viability (A. baumannii NCTC 13423; 10 µM): 1.8 ± 3.2%
Average inhibition %, planktonic cells viability (A. baumannii NCTC 13423; 10 µM): 3.8 ± 3.3%
Average inhibition %, biofilms viability (A. baumannii NCTC 13423; 15 µM): 92.7 ± 9.4%
Average inhibition %, planktonic cells viability (A. baumannii NCTC 13423; 15 µM): 98.1 ± 2.3%
Average inhibition %, biofilms viability (A. baumannii NCTC 13423; 25 µM): 100.6 ± 0.9%
Average inhibition %, planktonic cells viability (A. baumannii NCTC 13423; 25 µM): 99.7 ± 0%
Average inhibition %, biofilms viability (A. baumannii NCTC 13423; 50 µM): 101 ± 1%
Average inhibition %, planktonic cells viability (A. baumannii NCTC 13423; 50 µM): 99.5 ± 0%
inhibition at 10 µM (A. baumannii NCTC 13423; 10 µM, read-out: Average inhibition %, biofilms biomass): 0.2 ± 0.4%
inhibition at 10 µM (A. baumannii NCTC 13423; 10 µM, read-out: Average inhibition %, planktonic cells turbidity): 0.8 ± 1.4%
inhibition at 15 µM (A. baumannii NCTC 13423; 15 µM, read-out: Average inhibition %, biofilms biomass): 74.2 ± 18.9%
inhibition at 15 µM (A. baumannii NCTC 13423; 15 µM, read-out: Average inhibition %, planktonic cells turbidity): 97.2 ± 2.5%
inhibition at 25 µM (A. baumannii NCTC 13423; 25 µM, read-out: Average inhibition %, biofilms biomass): 88.5 ± 6.6%
inhibition at 25 µM (A. baumannii NCTC 13423; 25 µM, read-out: Average inhibition %, planktonic cells turbidity): 99.5%
inhibition at 50 µM (A. baumannii NCTC 13423; [5]): 87.4 ± 4.1%
inhibition at 50 µM (A. baumannii NCTC 13423; [6]): 99.1%
MIC (A. baumannii NCTC 13423; pre-exposure, Inactive = no activity up to 50 μM, > = some inhibition but no MIC reached, read-out: MIC A. baumannii NCTC 13423): 15 µM (≈ 5.27 µg/mL)
MIC (A. baumannii NCTC 13423; supplementary molecular formula strings sheet, read-out: MIC (A. baumannii)): 15 µM (≈ 5.27 µg/mL)

Reference: publication PMC8296573, “Synthesis and Biological Evaluation of Fingolimod Derivatives as Antibacterial Agents” (ACS Omega, 2021)
